Tests used:
[1] = target: T1, dopamine D2 (dopamine autoreceptor) (Rattus norvegicus, UniProt P61169); test: Affinity for the dopamine autoreceptor: 3H-quinpirole (Quin.) binding, homogenized rat striatal brain tissue
T1 construct: homogenized rat striatal brain tissue; from tissue; host or cells: rat striatal brain tissue, homogenized
Method: Affinity for the dopamine autoreceptor was established by a modification of the standard experimental test procedure of Seamen and Schaus, European Journal of Pharmacology 203, 105-109, 1991, wherein homogenized rat striatal brain tissue is incubated with ^3 H-quinpirole (Quin.) and various concentrations of test compound, filtered and washed and counted in a Betaplate scintillation counter.

[2] = target: T2, dopamine D-2 receptor (Rattus norvegicus, UniProt P61169); test: High affinity for the dopamine D-2 receptor: 3H-spiroperidol (Spiper.) binding, homogenized limbic brain tissue; conditions: read-out: IC50 (nM) D2 Spiper
T2 construct: homogenized limbic brain tissue; from tissue; host or cells: limbic brain tissue, homogenized
Method: High affinity for the dopamine D-2 receptor was established by the standard experimental test procedure of Fields, et al., Brain Res., 136, 578 (1977) and Yamamura et al., eds., Neurotranrutter Receptor Binding, Raven Press, N.Y. (1978) wherein homogenized limbic brain tissue is incubated with ^3 H-spiroperidol (Spiper.) and various concentrations of test compound, filtered and washed and shaken with Hydrofluor scintillation cocktail (National Diagnostics) and counted in a Packard 460 CD scintillation counter.

T1 sequence (P61169 whole entry): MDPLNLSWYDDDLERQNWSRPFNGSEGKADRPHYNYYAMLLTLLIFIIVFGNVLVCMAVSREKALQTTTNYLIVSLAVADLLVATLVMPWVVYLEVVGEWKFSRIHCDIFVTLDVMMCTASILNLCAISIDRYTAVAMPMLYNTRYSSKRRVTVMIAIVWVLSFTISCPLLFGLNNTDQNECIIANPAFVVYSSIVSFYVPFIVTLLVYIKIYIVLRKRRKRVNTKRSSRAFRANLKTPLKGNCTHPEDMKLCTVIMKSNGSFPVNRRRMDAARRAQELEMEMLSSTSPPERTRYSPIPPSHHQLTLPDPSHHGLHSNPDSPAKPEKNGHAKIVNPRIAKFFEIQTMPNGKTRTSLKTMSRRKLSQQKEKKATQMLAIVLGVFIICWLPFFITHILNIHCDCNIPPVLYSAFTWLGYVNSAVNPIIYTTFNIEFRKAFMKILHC
T2 sequence (P61169 whole entry): as above

IC50 [1] | IC50 [2] | Compound
20.8 nM | 2190 nM | O=c1[nH]c2cccc(OCCNCc3ccccc3)c2[nH]c1=O [Example 1, 5-(2-Benzylamino-ethoxy)-1,4-dihydro-quinoxaline-2,3-dione]
64.6 nM | – | O=c1[nH]c2cccc(OCCNCc3ccc(Cl)cc3)c2[nH]c1=O [Example 2, 5-[2-(4-Chloro-benzylamino)-ethoxy]-1,4-dihydro-quinoxaline-2,3-dione]
